Measured values reported in patent publication US6958351B2, “NMDA NR2B antagonists for treatment” (Pfizer Inc, priority 2000, dated 2005).

Oc1ccc2c(c1)OCC(N1CCC(O)(c3ccc(F)cc3)CC1)[C@H]2O (stereo in doubt)
melting point: 159 to 160 °C
